Data reported in paper PMC11971462, “Generation and validation of a novel multitarget small molecule in glioblastoma” (Cell Death & Disease, 2025).

System: GNS166 cells
Experiment: Label-free proteomics differential expression
Assay type: cell-based, human
Protocol: Proteomic studies were performed by the Proteomics Facility of the CIC bioGUNE by label-free relative quantification on nLC MS/MS. […] In both approaches, the top 20 enriched terms were plotted and the pathways were clustered using divisive hierarchical clustering based on pairwise Jaccard distances.

With `C#CCN(Cc1cc2cc(OCCCN3CCCCC3)ccc2n1S(=O)(=O)c1ccccc1)C(=O)CCCCCCC(=O)NO` [DDI] the “Direction TENS3_HUMAN” value (protein Q68CZ2) was “Down”, the “LogFC TENS3_HUMAN” value (protein Q68CZ2) was -3.364 and the “LogFC LARP4_HUMAN” value (protein Q71RC2 GN=LARP4) was 0.7689. For the same compound, the “LogFC PEG10_HUMAN” value (protein Q86TG7 GN=PEG10) was 3.16, the “LogFC SETD3_HUMAN” value (protein Q86TU7 GN=SETD3) was 0.5021 and the “Direction ACOT1_HUMAN” value (protein Q86TX2) was “Down”. The “LogFC ACOT1_HUMAN” value (protein Q86TX2) was -1.83, the “LogFC PABP2_HUMAN” value (protein Q86U42 GN=PABPN1) was -1.1218 and the “Direction PB1_HUMAN” value (protein Q86U86) was “Down”. The “LogFC PB1_HUMAN” value (protein Q86U86) was -2.078, the “Direction PHLB1_HUMAN” value (protein Q86UU1) was “Down” and the “LogFC PHLB1_HUMAN” value (protein Q86UU1) was -2.257. For the same compound, the “Direction DTX2_HUMAN” value (protein Q86UW9) was “Down”, the “LogFC DTX2_HUMAN” value (protein Q86UW9) was -1.305 and the “LogFC LUZP1_HUMAN” value (protein Q86V48 GN=LUZP1) was 0.5884. The “LogFC THOC4_HUMAN” value (protein Q86V81 GN=ALYREF) was -0.9542, the “Direction IQGA3_HUMAN” value (protein Q86VI3) was “Down” and the “LogFC IQGA3_HUMAN” value (protein Q86VI3) was -2.742. For the same compound, the “Direction MET16_HUMAN” value (protein Q86W50) was “Down”, the “LogFC MET16_HUMAN” value (protein Q86W50) was -1.7557 and the “LogFC CCD25_HUMAN” value (protein Q86WR0 GN=CCDC25) was 2.202. For the same compound, the “LogFC NIT1_HUMAN” value (protein Q86X76 GN=NIT1) was 0.9607, the “Direction CNDG2_HUMAN” value (protein Q86XI2) was “Down” and the “LogFC CNDG2_HUMAN” value (protein Q86XI2) was -2.11. The “Direction ANKL2_HUMAN” value (protein Q86XL3) was “Down”, the “LogFC ANKL2_HUMAN” value (protein Q86XL3) was -0.7885 and the “LogFC DDX42_HUMAN” value (protein Q86XP3 GN=DDX42) was -0.6019. For the same compound, the “Direction VRK2_HUMAN” value (protein Q86Y07) was “Down”, the “LogFC VRK2_HUMAN” value (protein Q86Y07) was -1.564 and the “LogFC RAB43_HUMAN” value (protein Q86YS6 GN=RAB43) was -1.528. For the same compound, the “Direction RFT1_HUMAN” value (protein Q96AA3) was “Down”, the “LogFC RFT1_HUMAN” value (protein Q96AA3) was -0.9928 and the “Direction TTC17_HUMAN” value (protein Q96AE7) was “Down”. For the same compound, the “LogFC TTC17_HUMAN” value (protein Q96AE7) was -1.296, the “LogFC PBIP1_HUMAN” value (protein Q96AQ6 GN=PBXIP1) was 1.536 and the “LogFC SARAF_HUMAN” value (protein Q96BY9 GN=SARAF) was 2.225. The “LogFC ACSF2_HUMAN” value (protein Q96CM8 GN=ACSF2) was 1.4396, the “LogFC GCP3_HUMAN” value (protein Q96CW5 GN=TUBGCP3) was -1.184 and the “LogFC RMXL1_HUMAN” value (protein Q96E39 GN=RBMXL1) was 1.251. For the same compound, the “LogFC SGTB_HUMAN” value (protein Q96EQ0 GN=SGTB) was 0.9619, the “Direction WDR34_HUMAN” value (protein Q96EX3) was “Down” and the “LogFC WDR34_HUMAN” value (protein Q96EX3) was -2.769. For the same compound, the “LogFC DYL2_HUMAN” value (protein Q96FJ2 GN=DYNLL2) was 1.408, the “Direction CERS2_HUMAN” value (protein Q96G23) was “Down” and the “LogFC CERS2_HUMAN” value (protein Q96G23) was -1.352. For the same compound, the “Direction AURKB_HUMAN” value (protein Q96GD4) was “Down”, the “LogFC AURKB_HUMAN” value (protein Q96GD4) was -0.8936 and the “Direction TOE1_HUMAN” value (protein Q96GM8) was “Down”. The “LogFC TOE1_HUMAN” value (protein Q96GM8) was -1.175, the “Direction ITCH_HUMAN” value (protein Q96J02) was “Down” and the “LogFC ITCH_HUMAN” value (protein Q96J02) was -0.7634. For the same compound, the “Direction TOPK_HUMAN” value (protein Q96KB5) was “Down”, the “LogFC TOPK_HUMAN” value (protein Q96KB5) was -2.0632 and the “Direction EHMT2_HUMAN” value (protein Q96KQ7) was “Down”. The “LogFC EHMT2_HUMAN” value (protein Q96KQ7) was -1.8, the “Direction EP400_HUMAN” value (protein Q96L91) was “Down” and the “LogFC EP400_HUMAN” value (protein Q96L91) was -2.0331. The “Direction TRI47_HUMAN” value (protein Q96LD4) was “Down”, the “LogFC TRI47_HUMAN” value (protein Q96LD4) was -1.137 and the “LogFC FXL18_HUMAN” value (protein Q96ME1 GN=FBXL18) was 0.7929. The “LogFC DCBD2_HUMAN” value (protein Q96PD2 GN=DCBLD2) was -0.7605, the “LogFC NED4L_HUMAN” value (protein Q96PU5 GN=NEDD4L) was 1.365 and the “LogFC S38A2_HUMAN” value (protein Q96QD8 GN=SLC38A2) was 0.9305. The “Direction MCCA_HUMAN” value (protein Q96RQ3) was “Down”, the “LogFC MCCA_HUMAN” value (protein Q96RQ3) was -0.7659 and the “Direction INT14_HUMAN” value (protein Q96SY0) was “Down”. For the same compound, the “LogFC INT14_HUMAN” value (protein Q96SY0) was -0.8896, the “Direction RSF1_HUMAN” value (protein Q96T23) was “Down” and the “LogFC RSF1_HUMAN” value (protein Q96T23) was -2.084. For the same compound, the “Direction UHRF1_HUMAN” value (protein Q96T88) was “Down”, the “LogFC UHRF1_HUMAN” value (protein Q96T88) was -2.206 and the “Direction VIGLN_HUMAN” value (protein Q00341) was “Down”. The “LogFC VIGLN_HUMAN” value (protein Q00341) was -1.004, the “Direction PAR14_HUMAN” value (protein Q460N5) was “Down” and the “LogFC PAR14_HUMAN” value (protein Q460N5) was -1.711. For the same compound, the “LogFC CDK5_HUMAN” value (protein Q00535 GN=CDK5) was 1.129, the “LogFC M17L2_HUMAN” value (protein Q567V2 GN=MPV17L2) was 1.68 and the “LogFC PURA_HUMAN” value (protein Q00577 GN=PURA) was 0.4477. For the same compound, the “LogFC SFT2C_HUMAN” value (protein Q587I9 GN=SFT2D3) was -1.885, the “LogFC ACD11_HUMAN” value (protein Q709F0 GN=ACAD11) was -0.7894 and the “LogFC CAP1_HUMAN” value (protein Q01518 GN=CAP1) was 0.6335. The “Direction OTUD4_HUMAN” value (protein Q01804) was “Down”, the “LogFC OTUD4_HUMAN” value (protein Q01804) was -1.044 and the “Direction BDH_HUMAN” value (protein Q02338) was “Down”. The “LogFC BDH_HUMAN” value (protein Q02338) was -0.9278, the “LogFC DSC2_HUMAN” value (protein Q02487 GN=DSC2) was 2.478 and the “LogFC AKA12_HUMAN” value (protein Q02952 GN=AKAP12) was 2.896. The “LogFC KIME_HUMAN” value (protein Q03426 GN=MVK) was -0.3731, the “Direction ERCC6_HUMAN” value (protein Q03468) was “Down” and the “LogFC ERCC6_HUMAN” value (protein Q03468) was -0.8508. The “Direction TAP1_HUMAN” value (protein Q03518) was “Down”, the “LogFC TAP1_HUMAN” value (protein Q03518) was -0.8528 and the “Direction TAP2_HUMAN” value (protein Q03519) was “Down”. The “LogFC TAP2_HUMAN” value (protein Q03519) was -0.8847, the “Direction GLGB_HUMAN” value (protein Q04446) was “Down” and the “LogFC GLGB_HUMAN” value (protein Q04446) was -0.6914. For the same compound, the “Direction SRS11_HUMAN” value (protein Q05519) was “Down”, the “LogFC SRS11_HUMAN” value (protein Q05519) was -0.4029 and the “Direction FOLC_HUMAN” value (protein Q05932) was “Down”. The “LogFC FOLC_HUMAN” value (protein Q05932) was -1.856, the “LogFC PUR1_HUMAN” value (protein Q06203 GN=PPAT) was 0.9093 and the “LogFC GFPT1_HUMAN” value (protein Q06210 GN=GFPT1) was -0.4508. For the same compound, the “LogFC PRDX1_HUMAN” value (protein Q06830 GN=PRDX1) was 1.081, the “Direction B2CL1_HUMAN” value (protein Q07817) was “Down” and the “LogFC B2CL1_HUMAN” value (protein Q07817) was -1.289. The “Direction RHG01_HUMAN” value (protein Q07960) was “Down”, the “LogFC RHG01_HUMAN” value (protein Q07960) was -0.6872 and the “Direction AHNK_HUMAN” value (protein Q09666) was “Down”. The “LogFC AHNK_HUMAN” value (protein Q09666) was -0.5648, the “Direction CPSF1_HUMAN” value (protein Q10570) was “Down” and the “LogFC CPSF1_HUMAN” value (protein Q10570) was -0.5217. The “LogFC SCRN1_HUMAN” value (protein Q12765 GN=SCRN1) was -0.7259, the “Direction CDC20_HUMAN” value (protein Q12834) was “Down” and the “LogFC CDC20_HUMAN” value (protein Q12834) was -2.397.
